Reference: US9067948B2 (Nimbus Iris, Inc., priority 2012, dated 2015)

Molecular target: T1, IRAK-4 (Homo sapiens, UniProt Q9NWZ3)
T1 sequence (Q9NWZ3 1-460): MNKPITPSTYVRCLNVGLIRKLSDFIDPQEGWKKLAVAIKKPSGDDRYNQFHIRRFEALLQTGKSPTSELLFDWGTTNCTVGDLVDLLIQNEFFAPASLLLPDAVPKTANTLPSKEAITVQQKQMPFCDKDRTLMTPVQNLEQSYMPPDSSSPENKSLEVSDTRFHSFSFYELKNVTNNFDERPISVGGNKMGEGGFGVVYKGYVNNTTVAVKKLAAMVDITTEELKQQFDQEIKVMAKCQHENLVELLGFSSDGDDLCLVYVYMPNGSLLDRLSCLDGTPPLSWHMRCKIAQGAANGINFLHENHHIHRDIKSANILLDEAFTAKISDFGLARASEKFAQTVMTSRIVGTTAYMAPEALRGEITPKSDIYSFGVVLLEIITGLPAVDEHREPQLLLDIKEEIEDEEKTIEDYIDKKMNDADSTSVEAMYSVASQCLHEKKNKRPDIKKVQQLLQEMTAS
Assay: IRAK-4 activity inhibition assay (Caliper)
Format: biochemical
Conditions: 3.5 nM IRAK4, 37 μM ATP, 1.5 μM Peptide 8, 28° C. 40 minutes
Procedure: A 1× kinase base buffer was prepared from 50 mM HEPES, pH 7.5 and 0.0015% Brij-35. A stop buffer was prepared from 100 mM HEPES, pH 7.5, 0.015% Brij-35, 0.2% Coating Reagent #3, and 50 mM EDTA.
Test compound was diluted to 50× of the final desired highest inhibitor concentration in reaction by 100% DMSO. 100 ul of this compound dilution was transferred to a well in a 96-well plate.
Test compound was serially diluted by transferring 30 μl to 60 μl of 100% DMSO in the next well and so forth for a total of 10 concentrations. 100 μl of 100% DMSO was added to two empty wells for no compound control and no enzyme control in the same 96-well plate.
A new 96-well plate was marked as intermediate plate. 5 μl of compound serial dilution was transferred from source plate to the corresponding wells of the intermediate plate. 45 μl of 1× kinase base buffer (KB buffer) was added to each well of the intermediate plate. The intermediate plate was placed for 10 min on a shaker.
5 μl of each well was transferred from the 96-well intermediate plate to a 384-well plate in duplicates. For example, A1 of the 96-well plate is transferred to A1 and A2 of the 384-well plate. A2 of the 96-well plate is transferred to A3 and A4 of the 384-well plate, and so on.
IRAK4 and DTT in 1× kinase base buffer was added. The 2.5× enzyme mix contained 8.8 nM IRAK4 and 5 mM DTT.
Peptide 8, ATP, MgCl2 and MnCl2 were added in the 1× kinase base buffer. The 2.5× peptide mix contained 3.75 μM peptide 8, 92.5 μM ATP, 12.5 mM MgCl2 and 2.5 mM MnCl2.
Assay plate already contained 5 μl of compound in 10% DMSO. Added 10 μl of 2.5× enzyme solution to each well of the 384-well assay plate, except no enzyme control wells. The final concentration of IRAK4 in reaction was 3.5 nM. Added 10 μl of 1× kinase base buffer to no enzyme control wells in the assay plate. Incubated at room temperature for 10 min.
Added 10 μl of 2.5× peptide solution to each well of the 384-well assay plate. The final concentration of Peptide 8 and ATP was 1.5 μM and 37 μM, respectively. Incubated at 28° C. for 40 minutes. Added 25 μl of stop buffer to stop reaction. Collected data on Caliper.
Copied conversion % data from Caliper program. Converted conversion % values to percent inhibition values. Percent inhibition=(max−conversion %)/(max−min)*100, where “max” means the conversion % of DMSO control and “min” means the conversion % of no enzyme control.

`CN(CC(=O)N1CCCC1)[C@H]1CC[C@H](Nc2ccnc3sc4c(c23)CCC4)CC1` [Compound I-207, 2-[methyl[4-([7-thia-9-azatricyclo[6.4.0.0[2,6]]dodeca-1(8),2(6),9,11-tetraen-12yl]amino)cyclohexyl]amino]-1-(pyrrolidin-1-yl)ethan-1-one] and `CN(C)[C@H]1CC[C@H](Nc2ccnc3sc4c(c23)CCC4)CC1` [Compound I-4, 1-N,1-N-dimethyl-4-N-[7-thia-9-azatricyclo[6.4.0.0^[2,6]]dodeca-1(12),2(6),8,10-tetraen-12-yl]cyclohexane-1,4-diamine] cannot be ordered by IC50: at most 5 µM for the first, at most 5 µM for the second.

`CN(C)[C@H]1CC[C@H](Oc2ccnc3sc4c(c23)CCC4)CC1` [Compound I-1] and `c1cc(O[C@H]2CC[C@H](N3CCOCC3)CC2)c2c3c(sc2n1)CCC3` [Compound I-3] cannot be ordered by IC50: at most 5 µM for the first, at most 5 µM for the second.

`CN[C@H]1CC[C@H](Nc2ccnc3sc4c(c23)CCC4)CC1` [Compound I-206, 1-N-methyl-4-N-[7-thia-9-azatricyclo[6.4.0.0[2,6]]dodeca-1(12),2(6),8,10-tetraen-12-yl]cyclohexane-1,4-diamine] and `N[C@H]1CC[C@H](Nc2ccnc3sc4c(c23)CCC4)CC1` [Compound I-205] cannot be ordered by IC50: at most 5 µM for the first, at most 5 µM for the second.

First: Cn1cc(Nc2cc(N[C@H]3CC[C@H](N4CCOCC4)CC3)c3c4c(sc3n2)CCC4)cn1 [Compound I-208, N2-(1-methyl-1H-pyrazol-4-yl)-N4-((1r,4r)-4-morpholinocyclohexyl)-6,7-dihydro-5H-cyclopenta[4,5]thieno[2,3-b]pyridine-2,4-diamine]
Second: c1cc(N[C@H]2CC[C@H](N3CCOCC3)CC2)c2c3c(sc2n1)CCC3 [Compound I-2]
The IC50 of the first is higher: 20 to 50 µM for the first, at most 5 µM for the second. The second is the more potent here.
